Experimental data reported in the supplement of paper PMC6411743.

Tests used:
guanosine triphosphate = compound: Nc1nc2c(ncn2[C@@H]2O[C@H](COP(=O)(O)OP(=O)(O)OP(=O)(O)O)[C@@H](O)[C@H]2O)c(=O)[nH]1 [guanosine triphosphate]; test: pEC50 of GTP-induced change in protein thermal stability (2D-TPP)
Method: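 2D thermal proteome profiling in Jurkat crude lysate. Lysate was treated 10 min at room temperature with Na-GTP (0, 0.001, 0.01, 0.1, 0.5 mM), heated to 12 temperatures (42-63.9 °C) for 3 min, and soluble protein was quantified by TMT10 LC-MS/MS. pEC50 is the median over replicates of dose-response fits (FDR-controlled hits).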

adenosine triphosphate = compound: Nc1ncnc2c1ncn2[C@@H]1O[C@H](COP(=O)(O)OP(=O)(O)OP(=O)(O)O)[C@@H](O)[C@H]1O [adenosine triphosphate]; test: pEC50 of ATP-induced change in protein thermal stability (2D-TPP)
Method in brief: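 Each of three independent experiments used Jurkat crude lysate given five concentrations including vehicle (10 min, room temperature), followed by 3 min at one of 12 temperatures from 42 to 63.9 °C and NP40 with benzonase (60 min, 4 °C). TMT LC-MS/MS quantified soluble protein after ultracentrifugation, expressed as fold changes against vehicle at each temperature with median normalisation. For pEC50, dose-response curves were fitted per replicate over adjacent temperature pairs, and hits were called through permutation-based false discovery rate control.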
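Throughout, for pEC50 of ATP-induced change in protein thermal stability (2D-TPP): lysate dosed with Na-ATP at 0 0.005 0.05 0.5 and 2 mM.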

Chain of UniProt Q6IQ22 (Q6IQ22 whole entry): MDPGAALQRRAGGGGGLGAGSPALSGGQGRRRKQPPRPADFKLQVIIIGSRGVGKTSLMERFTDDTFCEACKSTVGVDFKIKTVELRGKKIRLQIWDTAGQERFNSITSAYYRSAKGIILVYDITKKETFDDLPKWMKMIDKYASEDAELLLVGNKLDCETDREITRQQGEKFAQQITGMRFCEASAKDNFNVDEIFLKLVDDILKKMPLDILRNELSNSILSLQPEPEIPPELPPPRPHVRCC
Chain of UniProt P10809 (P10809 whole entry): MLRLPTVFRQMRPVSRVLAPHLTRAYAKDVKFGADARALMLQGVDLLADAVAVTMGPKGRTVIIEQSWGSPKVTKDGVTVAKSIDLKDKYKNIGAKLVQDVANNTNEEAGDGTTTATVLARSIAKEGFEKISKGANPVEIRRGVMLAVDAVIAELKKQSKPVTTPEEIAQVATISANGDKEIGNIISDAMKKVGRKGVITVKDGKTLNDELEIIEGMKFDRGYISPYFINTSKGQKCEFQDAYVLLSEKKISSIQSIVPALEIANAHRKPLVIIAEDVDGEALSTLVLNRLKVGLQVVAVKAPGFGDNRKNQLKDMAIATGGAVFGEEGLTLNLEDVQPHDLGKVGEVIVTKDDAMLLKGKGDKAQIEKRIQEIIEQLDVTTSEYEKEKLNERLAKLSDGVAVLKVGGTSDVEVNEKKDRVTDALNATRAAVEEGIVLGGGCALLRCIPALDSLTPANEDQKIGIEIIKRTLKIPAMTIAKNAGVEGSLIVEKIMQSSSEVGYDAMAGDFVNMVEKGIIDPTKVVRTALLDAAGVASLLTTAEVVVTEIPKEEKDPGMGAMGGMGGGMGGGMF
Chain of UniProt Q9H089 (Q9H089 whole entry): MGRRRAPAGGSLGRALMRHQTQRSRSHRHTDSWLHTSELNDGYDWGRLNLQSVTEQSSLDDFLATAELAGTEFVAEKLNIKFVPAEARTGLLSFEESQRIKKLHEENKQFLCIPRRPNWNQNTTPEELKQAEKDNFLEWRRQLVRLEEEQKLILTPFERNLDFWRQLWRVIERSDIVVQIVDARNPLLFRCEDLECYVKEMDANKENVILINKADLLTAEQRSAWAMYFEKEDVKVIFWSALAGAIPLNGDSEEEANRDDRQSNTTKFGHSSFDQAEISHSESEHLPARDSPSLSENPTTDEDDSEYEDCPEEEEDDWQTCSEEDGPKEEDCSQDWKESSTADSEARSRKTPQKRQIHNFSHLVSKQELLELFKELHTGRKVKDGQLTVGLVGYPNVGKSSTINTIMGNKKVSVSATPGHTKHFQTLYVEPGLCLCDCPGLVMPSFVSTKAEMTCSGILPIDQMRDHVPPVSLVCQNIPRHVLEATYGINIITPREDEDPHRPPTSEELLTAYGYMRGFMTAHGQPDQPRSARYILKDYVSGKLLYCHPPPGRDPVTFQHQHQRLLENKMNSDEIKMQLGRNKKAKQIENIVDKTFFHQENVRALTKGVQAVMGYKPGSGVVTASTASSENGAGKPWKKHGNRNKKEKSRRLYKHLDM
Chain of UniProt Q9BT22 (Q9BT22 whole entry): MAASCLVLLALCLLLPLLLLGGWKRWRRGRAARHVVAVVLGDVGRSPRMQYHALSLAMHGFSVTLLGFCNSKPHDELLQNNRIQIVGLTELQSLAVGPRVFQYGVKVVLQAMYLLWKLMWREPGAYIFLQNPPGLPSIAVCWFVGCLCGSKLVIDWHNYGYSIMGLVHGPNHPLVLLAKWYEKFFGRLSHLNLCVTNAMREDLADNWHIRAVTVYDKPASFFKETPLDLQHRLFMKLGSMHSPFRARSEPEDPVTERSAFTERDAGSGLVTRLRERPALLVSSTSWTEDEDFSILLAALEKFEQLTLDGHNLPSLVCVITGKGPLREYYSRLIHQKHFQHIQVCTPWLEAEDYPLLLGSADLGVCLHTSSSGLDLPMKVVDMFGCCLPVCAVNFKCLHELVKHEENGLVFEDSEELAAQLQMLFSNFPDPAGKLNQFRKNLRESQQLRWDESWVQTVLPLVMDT
Chain of UniProt P46063 (P46063 whole entry): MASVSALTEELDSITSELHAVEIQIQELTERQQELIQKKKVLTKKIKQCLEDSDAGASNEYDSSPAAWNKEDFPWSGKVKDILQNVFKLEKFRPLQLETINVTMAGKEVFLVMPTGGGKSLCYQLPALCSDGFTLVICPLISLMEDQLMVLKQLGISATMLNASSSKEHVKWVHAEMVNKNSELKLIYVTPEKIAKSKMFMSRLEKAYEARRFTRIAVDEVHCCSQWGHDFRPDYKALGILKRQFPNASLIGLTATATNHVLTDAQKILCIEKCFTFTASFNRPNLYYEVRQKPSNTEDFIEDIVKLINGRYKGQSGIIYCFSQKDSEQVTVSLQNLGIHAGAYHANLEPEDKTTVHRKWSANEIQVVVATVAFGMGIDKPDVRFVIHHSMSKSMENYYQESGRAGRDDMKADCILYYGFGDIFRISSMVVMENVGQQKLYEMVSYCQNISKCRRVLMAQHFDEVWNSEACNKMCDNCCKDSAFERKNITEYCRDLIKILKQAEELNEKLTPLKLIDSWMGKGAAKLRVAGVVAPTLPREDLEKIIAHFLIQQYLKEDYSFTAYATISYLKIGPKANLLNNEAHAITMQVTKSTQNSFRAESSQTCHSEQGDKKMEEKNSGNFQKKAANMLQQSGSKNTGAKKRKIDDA
Chain of UniProt Q9Y450 (Q9Y450 whole entry): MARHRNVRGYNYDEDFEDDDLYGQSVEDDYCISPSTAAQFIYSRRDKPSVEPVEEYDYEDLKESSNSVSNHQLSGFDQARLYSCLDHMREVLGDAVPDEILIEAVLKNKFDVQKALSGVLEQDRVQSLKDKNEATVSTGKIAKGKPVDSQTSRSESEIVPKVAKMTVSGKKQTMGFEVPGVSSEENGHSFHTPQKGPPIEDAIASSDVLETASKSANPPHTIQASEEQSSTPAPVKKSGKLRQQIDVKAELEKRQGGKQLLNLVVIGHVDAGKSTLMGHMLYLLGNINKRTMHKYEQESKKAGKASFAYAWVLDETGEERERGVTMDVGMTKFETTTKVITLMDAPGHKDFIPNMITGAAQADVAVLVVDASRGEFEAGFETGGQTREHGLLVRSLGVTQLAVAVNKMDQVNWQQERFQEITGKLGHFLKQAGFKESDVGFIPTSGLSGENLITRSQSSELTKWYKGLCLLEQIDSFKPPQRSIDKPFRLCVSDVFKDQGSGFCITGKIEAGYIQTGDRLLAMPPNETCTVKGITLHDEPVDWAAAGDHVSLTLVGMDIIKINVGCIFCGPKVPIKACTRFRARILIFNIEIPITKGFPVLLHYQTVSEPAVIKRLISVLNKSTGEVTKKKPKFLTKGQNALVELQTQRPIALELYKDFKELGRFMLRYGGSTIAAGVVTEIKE
Chain of UniProt O75794 (O75794 whole entry): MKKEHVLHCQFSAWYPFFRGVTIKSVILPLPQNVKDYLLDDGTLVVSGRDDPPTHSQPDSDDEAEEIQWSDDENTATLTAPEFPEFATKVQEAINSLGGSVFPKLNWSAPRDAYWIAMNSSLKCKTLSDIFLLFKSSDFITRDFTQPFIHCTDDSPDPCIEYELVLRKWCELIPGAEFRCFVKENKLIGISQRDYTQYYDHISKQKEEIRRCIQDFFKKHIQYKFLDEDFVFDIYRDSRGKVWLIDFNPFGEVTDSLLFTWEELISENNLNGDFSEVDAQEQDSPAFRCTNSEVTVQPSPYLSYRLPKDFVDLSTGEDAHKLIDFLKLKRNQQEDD
Chain of UniProt Q15907 (Q15907 whole entry): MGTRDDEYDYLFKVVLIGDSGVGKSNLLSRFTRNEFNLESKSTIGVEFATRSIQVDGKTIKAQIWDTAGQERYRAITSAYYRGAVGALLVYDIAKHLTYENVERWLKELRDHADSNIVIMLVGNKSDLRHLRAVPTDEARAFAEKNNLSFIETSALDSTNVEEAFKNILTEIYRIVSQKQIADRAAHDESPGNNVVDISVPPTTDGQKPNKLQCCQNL
Chain of UniProt P54577 (P54577 whole entry): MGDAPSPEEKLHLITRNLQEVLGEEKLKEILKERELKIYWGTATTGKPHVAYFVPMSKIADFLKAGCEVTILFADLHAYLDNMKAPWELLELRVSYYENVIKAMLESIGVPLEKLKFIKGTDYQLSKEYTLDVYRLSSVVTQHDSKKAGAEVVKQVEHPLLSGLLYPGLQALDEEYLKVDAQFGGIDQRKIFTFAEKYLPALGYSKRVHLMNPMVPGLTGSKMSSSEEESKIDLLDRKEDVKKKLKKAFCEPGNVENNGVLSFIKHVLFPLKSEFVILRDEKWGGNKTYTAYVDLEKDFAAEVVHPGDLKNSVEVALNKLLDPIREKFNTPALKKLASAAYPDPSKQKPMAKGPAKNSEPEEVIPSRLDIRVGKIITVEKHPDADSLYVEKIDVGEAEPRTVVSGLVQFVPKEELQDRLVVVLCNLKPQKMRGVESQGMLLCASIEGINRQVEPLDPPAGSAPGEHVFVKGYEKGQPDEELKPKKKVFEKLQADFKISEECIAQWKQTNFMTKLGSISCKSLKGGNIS
Chain of UniProt Q7L4I2 (Q7L4I2 whole entry): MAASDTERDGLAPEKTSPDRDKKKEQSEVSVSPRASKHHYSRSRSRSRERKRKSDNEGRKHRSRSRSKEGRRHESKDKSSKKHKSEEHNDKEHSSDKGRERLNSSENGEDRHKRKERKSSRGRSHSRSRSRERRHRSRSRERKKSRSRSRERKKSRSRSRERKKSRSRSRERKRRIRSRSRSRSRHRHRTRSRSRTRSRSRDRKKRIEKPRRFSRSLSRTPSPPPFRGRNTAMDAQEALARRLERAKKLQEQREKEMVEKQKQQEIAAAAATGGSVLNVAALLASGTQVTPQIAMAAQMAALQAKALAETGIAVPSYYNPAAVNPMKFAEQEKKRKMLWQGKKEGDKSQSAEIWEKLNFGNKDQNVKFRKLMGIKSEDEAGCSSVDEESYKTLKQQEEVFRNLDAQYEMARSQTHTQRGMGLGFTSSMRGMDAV
Chain of UniProt P10114 (P10114 whole entry): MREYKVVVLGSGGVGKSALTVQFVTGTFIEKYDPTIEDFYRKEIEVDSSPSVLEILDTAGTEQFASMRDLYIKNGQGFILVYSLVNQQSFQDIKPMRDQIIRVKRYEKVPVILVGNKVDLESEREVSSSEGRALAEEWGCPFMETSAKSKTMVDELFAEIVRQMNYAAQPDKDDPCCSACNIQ

| Target | pEC50 (guanosine triphosphate) | pEC50 (adenosine triphosphate) |
| --- | --- | --- |
| ABCD3 (effect direction: stabilized) (UniProt P28288) | 3.69 |  |
| ALG1 (effect direction: stabilized) (UniProt Q9BT22) | 3.56 |  |
| ALG5 (effect direction: stabilized) (UniProt Q9Y673) | 4.68 |  |
| COASY (effect direction: stabilized) (UniProt Q13057) | 4.03 |  |
| DRG1 (effect direction: stabilized) (UniProt Q9Y295) | 4.7 |  |
| EEFSEC (effect direction: stabilized) (UniProt P57772) | 3.92 |  |
| EIF5B (effect direction: stabilized) (UniProt O60841) | 3.81 |  |
| FPGT (effect direction: stabilized) (UniProt O14772) | 3.91 |  |
| GIMAP4 (effect direction: stabilized) (UniProt Q9NUV9) | 3.72 |  |
| GNAO1 (effect direction: stabilized) (UniProt P09471) | 4.24 |  |
| GSPT2 (effect direction: stabilized) (UniProt Q8IYD1) | 4.27 |  |
| H2AFX (effect direction: stabilized) (UniProt P16104) | 3.49 |  |
| HBS1L (effect direction: stabilized) (UniProt Q9Y450) | 4.21 |  |
| HSPD1 (effect direction: destabilized) (UniProt P10809) | 4.2 |  |
| NRAS (effect direction: stabilized) (UniProt P01111) | 4.01 |  |
| NUBPL (effect direction: stabilized) (UniProt Q8TB37) | 3.93 |  |
| OPA1 (effect direction: stabilized) (UniProt O60313) | 3.71 |  |
| PANK3 (effect direction: stabilized) (UniProt Q9H999) | 3.41 |  |
| PANK4 (effect direction: stabilized) (UniProt Q9NVE7) | 3.55 |  |

| Target | pEC50 (guanosine triphosphate) | pEC50 (adenosine triphosphate) |
| --- | --- | --- |
| RAB3A (effect direction: stabilized) (UniProt P20336) | 4 |  |
| RAB5A (effect direction: stabilized) (UniProt P20339) | 3.97 |  |
| RAB12 (effect direction: stabilized) (UniProt Q6IQ22) | 3.93 |  |
| RAB18 (effect direction: stabilized) (UniProt Q9NP72) | 3.65 |  |
| RAB23 (effect direction: stabilized) (UniProt Q9ULC3) | 4.02 |  |
| RAB37 (effect direction: stabilized) (UniProt Q96AX2) | 3.8 |  |
| RAC2 (effect direction: stabilized) (UniProt P15153) | 3.98 |  |
| RALA (effect direction: stabilized) (UniProt P11233) | 4.33 |  |
| RALB (effect direction: stabilized) (UniProt P11234) | 4.14 |  |
| RECQL (effect direction: destabilized) (UniProt P46063) | 3.84 |  |
| RFC5 (effect direction: stabilized) (UniProt P40937) | 3.8 |  |
| RSRC2 (effect direction: stabilized) (UniProt Q7L4I2) | 3.79 |  |
| SACS (effect direction: stabilized) (UniProt Q9NZJ4) | 3.82 |  |
| XRCC5 (effect direction: stabilized) (UniProt P13010) |  | < 2.7 |
| YARS (effect direction: stabilized) (UniProt P54577) |  | 3.25 |
| YME1L1 (effect direction: stabilized) (UniProt Q96TA2) |  | 3.54 |
| ZCCHC8 (effect direction: stabilized) (UniProt Q6NZY4) |  | < 2.7 |
| ZNF740 (effect direction: stabilized) (UniProt Q8NDX6) |  | 3.16 |

The remaining lines, values ahead:

| pEC50 (guanosine triphosphate) | pEC50 (adenosine triphosphate) | Target |
| --- | --- | --- |
| 3.56 |  | ACSF3 (effect direction: destabilized) (UniProt Q4G176) |
| 4.12 |  | ARF3 (effect direction: stabilized) (UniProt P61204) |
| 4.57 |  | ARF4 (effect direction: stabilized) (UniProt P18085) |
| 3.92 |  | ARL1 (effect direction: stabilized) (UniProt P40616) |
| 4.36 |  | ARL3 (effect direction: stabilized) (UniProt P36405) |
| 4.1 |  | ARL6 (effect direction: stabilized) (UniProt Q9H0F7) |
| 4.22 |  | ATAD3A (effect direction: stabilized) (UniProt Q9NVI7) |
| 3.88 |  | ATL2 (effect direction: stabilized) (UniProt Q8NHH9) |
| < 3.3 |  | CDC123 (effect direction: stabilized) (UniProt O75794) |
| < 3.3 |  | CPSF6 (effect direction: stabilized) (UniProt Q16630) |
| 4.62 |  | CPT1A (effect direction: stabilized) (UniProt P50416) |
| 4.57 |  | DDX1 (effect direction: stabilized) (UniProt Q92499) |
| 3.92 |  | DHX30 (effect direction: destabilized) (UniProt Q7L2E3) |
| 3.8 |  | DHX37 (effect direction: stabilized) (UniProt Q8IY37) |
| 3.62 |  | DNM1 (effect direction: stabilized) (UniProt Q05193) |
| 3.78 |  | DNM2 (effect direction: stabilized) (UniProt P50570) |
| 3.81 |  | DOCK2 (effect direction: stabilized) (UniProt Q92608) |
| 4.21 |  | ETNK1 (effect direction: stabilized) (UniProt Q9HBU6) |
| 3.82 |  | GBP1 (effect direction: stabilized) (UniProt P32455) |
| 3.74 |  | GDI2 (effect direction: stabilized) (UniProt P50395) |
| 4.04 |  | GFM1 (effect direction: stabilized) (UniProt Q96RP9) |
| 3.6 |  | GNAQ (effect direction: stabilized) (UniProt P50148) |
| 4.2 |  | GNL2 (effect direction: stabilized) (UniProt Q13823) |
| 4.95 |  | GPN1 (effect direction: stabilized) (UniProt Q9HCN4) |
| 3.67 |  | H2AFY (effect direction: stabilized) (UniProt O75367) |

| pEC50 (guanosine triphosphate) | pEC50 (adenosine triphosphate) | Target |
| --- | --- | --- |
| 4.32 |  | KRAS (effect direction: stabilized) (UniProt P01116) |
| 3.88 |  | LSG1 (effect direction: stabilized) (UniProt Q9H089) |
| 3.96 |  | MFN1 (effect direction: stabilized) (UniProt Q8IWA4) |
| 4.08 |  | MMAA (effect direction: stabilized) (UniProt Q8IVH4) |
| 4.17 |  | NKIRAS2 (effect direction: stabilized) (UniProt Q9NYR9) |
| 3.79 |  | PCK2 (effect direction: stabilized) (UniProt Q16822) |
| 3.78 |  | POFUT1 (effect direction: stabilized) (UniProt Q9H488) |
| 3.88 |  | RAB1B (effect direction: stabilized) (UniProt Q9H0U4) |
| 3.85 |  | RAB3D (effect direction: stabilized) (UniProt O95716) |
| 4.23 |  | RAB11B (effect direction: stabilized) (UniProt Q15907) |
| 3.92 |  | RAB27A (effect direction: stabilized) (UniProt P51159) |
| 4.12 |  | RAB33B (effect direction: stabilized) (UniProt Q9H082) |
| 4.47 |  | RAP2A (effect direction: stabilized) (UniProt P10114) |
| 3.85 |  | RFC3 (effect direction: stabilized) (UniProt P40938) |
| 3.91 |  | RFC4 (effect direction: stabilized) (UniProt P35249) |
| 4.39 |  | RNGTT (effect direction: stabilized) (UniProt O60942) |
| 3.84 |  | RRAS (effect direction: stabilized) (UniProt P10301) |
|  | < 2.7 | XRCC6 (effect direction: stabilized) (UniProt P12956) |
|  | 3.04 | XYLB (effect direction: stabilized) (UniProt O75191) |
|  | 3.97 | YARS2 (effect direction: stabilized) (UniProt Q9Y2Z4) |
|  | 2.91 | YRDC (effect direction: stabilized) (UniProt Q86U90) |
|  | 2.91 | ZC3HC1 (effect direction: stabilized) (UniProt Q86WB0) |
|  | < 2.7 | ZCCHC9 (effect direction: destabilized) (UniProt Q8N567) |
|  | 2.88 | ZNF148 (effect direction: stabilized) (UniProt Q9UQR1) |
|  | 2.84 | ZRANB2 (effect direction: stabilized) (UniProt O95218) |
